Experiments:
[1] = test system: rats fed with Nath diet; assay: Nath diet experiments in the same manner, comparison with other drugs at present in use (25th, 35th, 45th day); type: in vivo; conditions: for increase in cholesteraemia: aminoethanethiosulphonic acid 100 mg/kg, phosphorylcholine dose not stated; for increase in triglyceridemia: Nath diet alone 100%
Protocol: Experiments were carried out in the same manner as explained above with other drugs at present in use and, more particularly, phosphorylcholine (2 doses/25 and 50 mg/kg), sillimarine (Legalon, 70 mg/kg), S-adenosyl-1-methionine (Samyr) 25 mg/kg.
In rats fed solely with the Nath diet, the increase is, however, 100%. Among the control drugs, only phosphorylcholine (50 mg/kg) achieves a slight reduction (-20%) relative to the increase observed at the end of the period with the atherogenic diet. • - as regards the cholesteraemia the protective action shown by the drug of the invention was significant. Indeed, in rats fed with the drug phosphorylcholine,a 300% increase was found after 25 days and 320% and 410% increases respectively were found on the 35th and 45th days of feeding while in rats fed with aminoethanethiosulphonic acid (100mg/kq) the increase in cholesteraemia was only 35% on the 25th and on the 35th days. On the 45th day the increase was 50%.

[2] = test system: liver damage in rats induced by allyl alcohol; assay: Activity against liver damage in rats induced by allyl alcohol; type: in vivo
Protocol: Experiments were carried out on the activity of the drug of this invention on liver damage in rats induced by allyl alcohol. This damage was evaluated by means of the weight of the liver, the quantity of lipids in the tissue itself and tHe excretion of BSP in the bile, as well as the changes in the GOT, GPT and the alkaline phosphatase levels in the blood.
The respective administrations to the rats were carried out intraperitoneally for 4 days. From the data in Table III it is seen that the weight of the rats'livers increased from […] in rats poisoned with allyl alcohol while the increase was only up to 5.30 mg in rats fed intraperitoneally with allyl alcohol and aminoethanethiosulphonic acid (drug of the invention). When allyl alcohol and the drug known by the name Thiola (100mg/^kg/day) was administered to the rats the liver weight increased to about 5.85 mg.

[3] = Toxicology, administration kept up for 180 days; type: in vivo; conditions: daily dose of 200 mg/kg of body weight
[4] = Solubility in water; type: physicochemical
[5] = test system: WISTAR RATS KEPT ON A MORRIS DIET; assay: Protection in Wistar rats kept on a Morris diet for 45 days; type: in vivo; conditions: Morris diet 45 days; (XX) 100 mg/kg, phosphorylcholine 50 mg/kg
Protocol: (§1) Table IV below gives data relative to the protection offered by the administration of aminoethanethiosulphonic acid (100 mg/kg/day) and a control drug (phosphoryl- , choline, 50 mg/kg/day) to groups of Wistar rats subjected to two different atherogenic diets, specifically the Morris diet and the Handler diet, for 45 days. The data, in general, substantially repeated those observed in experiments carried out on aminals subjected to the Nath diet.

[6] = test system: rats fed with Nath diet; assay: Antidyslipaemic effect in rats fed with Nath diet for 45 days (evaluations on 28th and 45th day); type: in vivo, female Wistar rats; conditions: 28th day of treatment, tiadenol 100 mg/kg/day (Group C)
[7] = test system: WISTAR RATS ON A HANDLER DIET; assay: Protection in Wistar rats on a Handler diet for 45 days; type: in vivo; conditions: Handler diet 45 days; (XX) 100 mg/kg, phosphorylcholine 50 mg/kg
Protocol: as §1

[8] = Stability in the solid state; type: physicochemical; conditions: even at 50°C for very long periods of time
[9] = test system: rats fed with Nath diet; assay: Antidyslipaemic effect in rats fed with Nath diet for 45 days (evaluations on 28th and 45th day); type: in vivo, female Wistar rats; conditions: for blood triglyceride level: 28th day of treatment, aminoethanethiosulphonic acid dose printed as 10 mg/kg/day, tiadenol 100 mg/kg/day (Group C); for increase in pyruvic transaminase (GPT) level compared with the controls: Nath diet alone 60%; for increase in glutamic oxaloacetic transaminase (GOT) level compared with the controls: Nath diet alone 109%
Protocol: The aminoethanethiosulphonic acid, which constitutes the drug of this invention was tested experimentally on female Wistar rats to establish its antidyslipaemic effect in comparison with drugs already in use therapeutically. For this experiment, the rats were divided into five groups of five rats which were fed in accordance with the following scheme: • GROUP "A": rats fed with a normal diet of nutritive pellets having the following composition: Composition of the nutritive pellets: [formula] with the addition of vitamins (A-D3-E-C), NaCl, CaCO3 and spring water at will. • GROUP "B": rats fed with Nath diet (Nath et al. 1959 - Journal of Nutrition, 67-289). • GROUP "C": rats fed with a Nath diet incorporating the drug tiadenol (1.25 q/kg)such that the rats could take up the drug in quantities of 100 mg/kg/day. • GROUP D: rats fed with a Nath diet incorporating the drug of the invention (1.25 g/kg of aminoethanethiosulphonic acid) such that the rats could take up the drug in quantities of 100 mg/kg/day. • GROUP"E":rats fed with a Nath diet incorporating the drug of the invention (aminoethanethiosulphonic acid) in quantities of 2.5 g/kg, so that the rats could take up the drug in quantities of 200 mg/kg/day.
The experiments were carried out over a period of 45 days. On the 28th day of treatment, the cholesteraemia and the blood triglyceride level of the rats were measured.
On the 45th day from the start of the treatment, however a whole series of systematic weight and hematochemical evaluations was carried out in accordance with the following scheme: • - liver weight/body weight percentage ratio • - ratio of the weight of the liver when removed/dry weight of the liver • - cholesteraemia according to the Watson method (1) • - blood triglyceride level according to the Bermryer method (2) • - blood alkaline phosphatase level (3,4) • - glutamic oxaloacetic transaminase level according to the Karmen method (5,6) • - glutamic pyruvic transaminase level according to the Wroblewski and La-Due method (7) • - total lipid content of the liver by extraction with ether, separation by decantation, evaporation of the ether part in an oven and weighing of the residue. • 1. - WATSON D. (1960) Clin. Chim. Acta, 5 : 637 • 2. - BERGMRYER H.U. (1975) Z. Klin. Chem. and Klin. Biochem.13 : 507 • 3; - Anon. (1970) Z.Klin. Chem. and Klin.Biochem 13 : 507. • 4. - Anon.(1972) Z.Klin. Chem. and Klin. Biochem 13 : 507. • 5. - KARMEN A. and coll. (1955) J. Clin. Invest. 34 : 126. • 6. - KARMEN A. (1955) J. Clin Invest. 34 : 131 • 7. - WROBLEWSKI F. and coll. (1956) Proc. Soc. exp. Biol. Med. 91 : 569.
Macroscopic and microscopic, anatomical-pathological examinations of the liver and of the thoracic aorta were carried out on all the animals, the microscopic examinations being carried out by means of preservation in formalin,enclosure and colouration with hematoxylin- eosin and selective dyes for the lipids according to the current methods.

[10] = 100 mg/kg/day i.p. for 4 days, allyl alcohol 2 ml/kg p.o. 30 minutes after last administration
[11] = 100 mg/kg/day i.p. for 4 days, allyl alcohol 2 ml/kg p.o. 30 minutes after last administration, listed as (XX)

Compound | LIVER Weight [2, 10] | SERUM BSP [2, 10] | SERUM GOT [2, 10] | SERUM GPT [2, 10] | increase in cholesteraemia ([1]; 25th day) | increase in cholesteraemia ([1]; 35th day) | increase in cholesteraemia ([1]; 45th day) | BETALIPOPROTEINS, protection [5] | CHOLESTERAEMIA, protection [5] | HEPATIC LIPIDS, protection [5] | TOTAL BLOOD LIPIDS, protection [5] | blood cholesterol level [6] | CHOLESTERAEMIA, protection [7] | HEPATIC LIPIDS, protection [7] | TOTAL BLOOD LIPIDS, protection [7] | TRIGLYCERIDEMIA, protection [7] | blood triglyceride level [9] | increase in pyruvic transaminase (GPT) level compared with the controls ([9]; 45th day, 100 mg/kg/day) | increase in glutamic oxaloacetic transaminase (GOT) level compared with the controls ([9]; 45th day, 100 mg/kg/day) | further results
C[S+](CC[C@H](N)C(=O)O)C[C@H]1O[C@@H](n2cnc3c(N)ncnc32)[C@H](O)[C@@H]1O (some centres unmarked) [Samyr, S-adenosyl-1-methionine, reference compound] | – | – | – | – | – | – | – | – | – | – | – | – | – | – | – | – | – | – | – | changes in the transaminase levels (GOT and GPT) ([1]; 35th day of administration): a certain favourable action; protective action as regards the cholesteraemia ([1]; Legalon 70 mg/kg, Samyr 25 mg/kg, noticeably less than aminoethanethiosulphonic acid): a certain protective action; protection from the point of view of lipid infiltration ([1]; control drugs compared with aminoethanethiosulphonic acid): protection was found but was only half that given by the aminoethanethiosulphonic acid
CC(S)C(=O)NCC(=O)O (centres unmarked) [Thiola] | about 5.85 mg | 21.78 ± 2.99 µg/mL | 388.0 ± 25.8 mU/ml | 99.4 ± 12.2 mU/ml | – | – | – | – | – | – | – | – | – | – | – | – | – | – | – | LIVER Lipids Tot. [2, 10]: 5.23 ± 0.30 mg%; SERUM ALKALINE PHOSPHATASE [2, 10]: 3.13 ± 0.23 U/ml; protection against the increase in the total lipid content of the liver ([2]; after allyl alcohol, 100 mg/kg/day i.p.): did not give any protection
NCCS(=O)(O)=S [aminoethanethiosulphonic acid] | 5.30 | 12.31 ± 0.91 µg/mL | 172.0 ± 10.2 mU/ml | 25.9 ± 2.5 mU/ml | 35% | 35% | 50% | 45% | 60% | 50% | 40% | 129 mg% | 35% | 50% | 33% | 30% | 31 mg% | 90% | 23% | increase in the quantity of lipids in the tissue (hepatic parenchyma) ([1]; 25th day, 100 mg/kg, Nath diet alone + 155): 50%; increase in the quantity of lipids in the tissue (hepatic parenchyma) ([1]; 25th day, 200 mg/kg, Nath diet alone + 155): 95%; increase in triglyceridemia ([1]; 35th day, 100 mg/kg/day): 15%; increase in triglyceridemia ([1]; 35th day, 200 mg/kg/day): 40%; increase in the quantity of lipids in the tissue (hepatic parenchyma) ([1]; 45th day, 100 mg/kg, Nath diet alone + 225): 98%; increase in the quantity of lipids in the tissue (hepatic parenchyma) ([1]; 45th day, 200 mg/kg, Nath diet alone + 225): 110%; LIVER Lipids Tot. [2, 11]: 5.08 ± 0.39 mg%; LIVER Weight [2, 11]: 5.30 ± 0.05; LIVER Lipids Tot. ([2]; 100 mg/kg/day i.p. for 4 days, allyl alcohol 2 ml/kg p.o. 30 minutes after last administration, listed as drug of the invention): 5.08 mg%; mortality [3]: did not result in any increase in mortality; weight curve [3]: nor any variation in the weight curve; solubility in water [4]: soluble in water; stability in the solid state [8]: considerable stability in the solid state; increase in the hepatic lipid infiltration compared with the control animals ([9]; 45th day, 100 mg/kg/day, Nath diet alone 235%): 117%
C[N+](C)(C)CCOP(=O)(O)O [phosphorylcholine, reference compound] | – | – | – | – | 300% | 320% | 410% | 8% | 12% | 12% | 5% | – | 15% | 23% | 10% | 7% | – | – | – | reduction in triglyceridemia relative to the increase observed at the end of the period with the atherogenic diet ([1]; 50 mg/kg): -20%
OCCSCCCCCCCCCCSCCO [tiadenol, reference compound] | – | – | – | – | – | – | – | – | – | – | – | 155 mg% | – | – | – | – | 44 mg% | 100% | 32% | –

— EP0108854A1, “Drug for stimulating hepatic cell homeostasis and for restoring the functional capacity of the hepatocytes” (ARCONTHORN LIMITED, priority 1982, dated 1984)
